Measured values taken from article PMC3824017 (The Journal of Cell Biology, 2013).

Experiments:
erlin-1 = molecular target: T1, erlin-1 (Homo sapiens, UniProt O75477); assay type: binding
T1 sequence (O75477 1-348): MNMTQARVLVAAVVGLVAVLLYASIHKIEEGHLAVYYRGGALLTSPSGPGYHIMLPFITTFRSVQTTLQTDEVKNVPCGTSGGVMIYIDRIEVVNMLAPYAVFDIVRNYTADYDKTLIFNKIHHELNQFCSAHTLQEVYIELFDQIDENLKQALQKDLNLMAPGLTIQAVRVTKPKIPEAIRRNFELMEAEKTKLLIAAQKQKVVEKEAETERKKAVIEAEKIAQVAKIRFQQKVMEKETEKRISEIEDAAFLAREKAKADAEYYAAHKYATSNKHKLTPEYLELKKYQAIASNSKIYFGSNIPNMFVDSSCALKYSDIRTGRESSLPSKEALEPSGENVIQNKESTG

[1] = molecular target: T2, erlin-2 (native erlin-1/2 complex) (Mus musculus, UniProt Q8BFZ9+Q91X78); assay type: binding
T2 sequence (Q8BFZ9 1-340): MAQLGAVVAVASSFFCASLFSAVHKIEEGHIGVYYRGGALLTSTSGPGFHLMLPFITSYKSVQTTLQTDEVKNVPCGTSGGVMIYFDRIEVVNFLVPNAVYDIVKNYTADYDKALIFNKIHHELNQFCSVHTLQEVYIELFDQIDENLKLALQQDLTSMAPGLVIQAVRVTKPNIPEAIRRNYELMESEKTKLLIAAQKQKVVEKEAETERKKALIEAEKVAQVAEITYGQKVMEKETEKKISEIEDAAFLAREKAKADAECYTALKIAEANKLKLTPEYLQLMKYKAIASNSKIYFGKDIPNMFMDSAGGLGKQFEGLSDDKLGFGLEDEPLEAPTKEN
T2 sequence (Q91X78 1-348): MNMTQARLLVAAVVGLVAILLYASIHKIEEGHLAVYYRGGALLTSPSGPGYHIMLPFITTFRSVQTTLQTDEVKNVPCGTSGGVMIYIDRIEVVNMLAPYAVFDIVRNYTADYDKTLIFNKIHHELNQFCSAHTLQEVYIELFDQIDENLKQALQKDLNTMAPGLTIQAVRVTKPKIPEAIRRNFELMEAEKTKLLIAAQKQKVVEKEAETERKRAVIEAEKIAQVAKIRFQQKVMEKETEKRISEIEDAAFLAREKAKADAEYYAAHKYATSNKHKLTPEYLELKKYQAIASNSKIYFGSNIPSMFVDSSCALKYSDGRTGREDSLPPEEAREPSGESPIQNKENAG

Molecule `CC(C)CCC[C@@H](C)[C@H]1CC[C@H]2[C@@H]3CC=C4C[C@@H](O)CC[C@]4(C)[C@H]3CC[C@]12C` [cholesterol] has a Kd (erlin-1) of 13.2 µM and a Kd [1] of 13.4 µM.
